Source: PubChem BioAssay AID330 (DTP/NCI, 2004)
Several values for one entry are separate records, joined by “and”; a condition that tells them apart may be missing. Identical values can stand only once. Inconclusive results and toxic doses are left out. How the source made its calls: active means survival T/C of 150% or more; inactive means T/C below 125% in these data. Peptide text beside a SMILES is read from it. * marks the point of attachment. Cbz = O=C(OCc1ccccc1)*

System: P388 leukemia ip, CD2F1 mice, survival T/C
Assay: NCI In Vivo Anticancer Drug Screen. Data for tumor model P388 Leukemia (intraperitoneal) in CD2F1 (CDF1) mice
Details: endpoint: median survival time, higher = longer survival
In short: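 Mice carrying the transplanted tumor received test compound or vehicle. Survival was recorded in each group, and the value is the treated-group measurement divided by that of the vehicle-treated control group.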

[1] = dose: 12.5 mg/kg/injection, schedule: Q01DX005 (ip), vehicle: Klucel (hydroxypropylcellulose) (HPC)
[2] = dose: 50.0 mg/kg/injection, schedule: Q01DX009 (ip), vehicle: saline
[3] = dose: 100.0 mg/kg/injection, schedule: Q01DX009 (ip), vehicle: saline
[4] = dose: 200.0 mg/kg/injection, schedule: Q01DX009 (ip), vehicle: saline
[5] = dose: 25.0 mg/kg/injection, schedule: Q01DX009 (ip), vehicle: saline
[6] = dose: 200.0 mg/kg/injection, schedule: Q01DX005 (ip), vehicle: Klucel (hydroxypropylcellulose) (HPC)
[7] = dose: 60.0 mg/kg/injection, schedule: Q01DX005 (ip), vehicle: Klucel (hydroxypropylcellulose) (HPC)
[8] = dose: 120.0 mg/kg/injection, schedule: Q01DX005 (ip), vehicle: Klucel (hydroxypropylcellulose) (HPC)
[9] = dose: 240.0 mg/kg/injection, schedule: Q01DX005 (ip), vehicle: Klucel (hydroxypropylcellulose) (HPC)
[10] = dose: 50.0 mg/kg/injection, schedule: Q01DX005 (ip), vehicle: Klucel (hydroxypropylcellulose) (HPC)
[11] = dose: 100.0 mg/kg/injection, schedule: Q01DX005 (ip), vehicle: Klucel (hydroxypropylcellulose) (HPC)
[12] = dose: 100.0 mg/kg/injection, schedule: Q04DX003 (ip), vehicle: saline with Tween-80
[13] = dose: 200.0 mg/kg/injection, schedule: Q04DX003 (ip), vehicle: saline with Tween-80
[14] = dose: 400.0 mg/kg/injection, schedule: Q04DX003 (ip), vehicle: saline with Tween-80
[15] = dose: 50.0 mg/kg/injection, schedule: Q01DX005 (ip), vehicle: saline with Tween-80
[16] = dose: 100.0 mg/kg/injection, schedule: Q01DX005 (ip), vehicle: saline with Tween-80
[17] = dose: 200.0 mg/kg/injection, schedule: Q01DX005 (ip), vehicle: saline with Tween-80

Measured: T/C

FC(F)(F)C1(C(F)(F)F)O[Te]2(OC1(C(F)(F)F)C(F)(F)F)OC(C(F)(F)F)(C(F)(F)F)C(C(F)(F)F)(C(F)(F)F)O2
inactive: dose: 6.25 mg/kg/injection, schedule: Q01DX005 (ip), vehicle: Klucel (hydroxypropylcellulose) (HPC) 100 % of control | [1] 112 % of control

Oc1ccc(C2N=CNc3nc[nH]c32)c(O)c1 (stereo unspecified)
inactive: [2] 105 % of control | [3] 102 % of control | [4] 100 % of control

COC(=O)C1C(C2OC3OC(C)(C)OC3C3OC(C)(C)OC32)N1C(=O)Cl (stereo unspecified)
inactive: dose: 100.0 mg/kg/injection, schedule: Q04DX002 (ip), vehicle: saline with Tween-80 102 % of control | dose: 200.0 mg/kg/injection, schedule: Q04DX002 (ip), vehicle: saline with Tween-80 103 % of control

CCCCCCCCCCCCCCCCOc1ccc(S(=O)(=O)N/N=c2/sc3ccc(S(=O)(=O)O)cc3n2C)cc1C(=O)O
inactive: [5] 99 % of control | [2] 100 % of control | dose: 100.0 mg/kg/injection, schedule: Q01DX009 (ip), vehicle: saline with Tween-80 102 % of control | [3] 86 % of control

CN(C)CC(CN(C)C)C(=O)/C=C/c1ccc2c(c1)OCO2
inactive: dose: 0.78 mg/kg/injection, schedule: Q01DX005 (ip), vehicle: Klucel (hydroxypropylcellulose) (HPC) 112 % of control | dose: 1.56 mg/kg/injection, schedule: Q01DX005 (ip), vehicle: Klucel (hydroxypropylcellulose) (HPC) 104 % of control | dose: 3.12 mg/kg/injection, schedule: Q01DX005 (ip), vehicle: Klucel (hydroxypropylcellulose) (HPC) 104 % of control

CN1C(=O)C2N(C(=O)C1(C)S)c1ccccc1C2(C)C (stereo unspecified)
inactive: [2] 102 % of control | [3] 93 % of control | [4] 101 % of control

CC(NC(=O)OCc1ccccc1)C(=O)NC(C(N)=O)C(C)C (stereo not drawn) (Cbz-Ala-Val-NH2; configuration not given here)
inactive: [1] 89 % of control | dose: 25.0 mg/kg/injection, schedule: Q01DX005 (ip), vehicle: Klucel (hydroxypropylcellulose) (HPC) 100 % of control | [6] 86 % of control

O=C(NC1(OC(=O)c2ccc(Cl)cc2)CC1)c1ccc(Cl)cc1
inactive: [7] 103 % of control | [8] 104 % of control | [9] 89 % of control

COC1OC(CNCCO)C2OC(C)(C)OC12 (stereo unspecified)
inactive: dose: 50.0 mg/kg/injection, schedule: Q01DX005 (ip), vehicle: saline + alcohol 100 % of control | dose: 100.0 mg/kg/injection, schedule: Q01DX005 (ip), vehicle: saline + alcohol 100 % of control | dose: 200.0 mg/kg/injection, schedule: Q01DX005 (ip), vehicle: saline + alcohol 100 % of control

O=C1c2ccccc2CC12OC2c1ccncc1 (stereo unspecified)
inactive: dose: 100.0 mg/kg/injection, schedule: Q04DX002 (ip), vehicle: Klucel (hydroxypropylcellulose) (HPC) 104 % of control | dose: 200.0 mg/kg/injection, schedule: Q04DX002 (ip), vehicle: Klucel (hydroxypropylcellulose) (HPC) 100 % of control | dose: 400.0 mg/kg/injection, schedule: Q04DX002 (ip), vehicle: Klucel (hydroxypropylcellulose) (HPC) 106 % of control

CC(=O)OCC12C(=O)CC(C)C3(CC(c4ccoc4)OC3=O)C1(C)CCCC21CO1 (stereo unspecified) (tested in a mixture with another compound)
inactive: dose: 12.0 mg/kg/injection, schedule: Q01DX005 (ip), vehicle: Klucel (hydroxypropylcellulose) (HPC) 94 % of control | dose: 24.0 mg/kg/injection, schedule: Q01DX005 (ip), vehicle: Klucel (hydroxypropylcellulose) (HPC) 92 % of control | dose: 48.0 mg/kg/injection, schedule: Q01DX005 (ip), vehicle: Klucel (hydroxypropylcellulose) (HPC) 91 % of control | dose: 96.0 mg/kg/injection, schedule: Q01DX005 (ip), vehicle: Klucel (hydroxypropylcellulose) (HPC) 100 % of control

COc1cccc(NCNC2Nc3ccccc3N2)c1
inactive: dose: 15.0 mg/kg/injection, schedule: Q01DX005 (ip), vehicle: saline with Tween-80 106 % of control | dose: 30.0 mg/kg/injection, schedule: Q01DX005 (ip), vehicle: saline with Tween-80 107 % of control | dose: 60.0 mg/kg/injection, schedule: Q01DX005 (ip), vehicle: saline with Tween-80 107 % of control

O=C1CCC/C(c2ccccc2)=N\N=C/1c1ccccc1
inactive: [10] 106 % of control | [11] 106 % of control | [6] 103 % of control

CCn1c(Cl)c(/C=N/NC(N)=S)c2ccccc21
inactive: dose: 100.0 mg/kg/injection, schedule: Q01DX001 (ip), vehicle: Klucel (hydroxypropylcellulose) (HPC) 97 % of control | dose: 200.0 mg/kg/injection, schedule: Q01DX001 (ip), vehicle: Klucel (hydroxypropylcellulose) (HPC) 91 % of control

CCOC(=O)C(C)/C(C)=N\NC(N)=S (stereo unspecified)
inactive: [7] 100 % of control | [8] 100 % of control | [9] 100 % of control

CCCCC(CC)COC(C)=O (stereo unspecified)
inactive: [12] 104 % of control | [13] 109 % of control | [14] 86 % of control

Cn1c2c(c(=O)c3c4[nH]c5c(c(=O)c4ccc31)CCCC5)CCCC2
inactive: [10] 108 % of control | dose: 50.0 mg/kg/injection, schedule: Q04DX003 (ip), vehicle: saline with Tween-80 103 % of control | [11] 101 % of control | [12] 103 % of control and 96 % of control | [6] 94 % of control | [13] 99 % of control | [14] 100 % of control and 94 % of control

COc1cc(C(CC#N)CC#N)cc(OC)c1OC
inactive: [15] 96 % of control | [16] 99 % of control | [17] 97 % of control

CC(C)(C)c1ccc2c(c1)C(O)(c1ccccc1)C1OC1(C(C)(C)C)C2=O (stereo unspecified)
inactive: [2] 106 % of control | [3] 100 % of control | [4] 91 % of control

O=C1C=CC(=O)c2c1c(O)c1ccccc1c2Cl
inactive: dose: 6.25 mg/kg/injection, schedule: Q01DX005 (ip), vehicle: saline 102 % of control | dose: 12.5 mg/kg/injection, schedule: Q01DX005 (ip), vehicle: saline 95 % of control | dose: 25.0 mg/kg/injection, schedule: Q01DX005 (ip), vehicle: saline 93 % of control

Nc1nc(N)c(Cc2ccncc2)cc1Cc1ccncc1
inactive: [10] 112 % of control | [11] 101 % of control | [6] 111 % of control

N#C/C(=C\c1ccc2c(c1)OCO2)C(=O)N/N=C/c1ccc2c(c1)OCO2
inactive: [2] 101 % of control | [3] 98 % of control | [4] 94 % of control

COc1ccc(Cl)[n+]([O-])n1
inactive: dose: 6.25 mg/kg/injection, schedule: Q04DX002 (ip), vehicle: Klucel (hydroxypropylcellulose) (HPC) 111 % of control | dose: 12.5 mg/kg/injection, schedule: Q04DX002 (ip), vehicle: Klucel (hydroxypropylcellulose) (HPC) 122 % of control | dose: 25.0 mg/kg/injection, schedule: Q04DX002 (ip), vehicle: Klucel (hydroxypropylcellulose) (HPC) 120 % of control | dose: 25.0 mg/kg/injection, schedule: Q04DX002 (ip), vehicle: saline 104 % of control | dose: 50.0 mg/kg/injection, schedule: Q04DX002 (ip), vehicle: Klucel (hydroxypropylcellulose) (HPC) 117 % of control | dose: 50.0 mg/kg/injection, schedule: Q04DX002 (ip), vehicle: saline 122 % of control | dose: 100.0 mg/kg/injection, schedule: Q04DX002 (ip), vehicle: saline 106 % of control

CCCCCCCCCC[N+]1([O-])CCCCCC1
inactive: dose: 12.5 mg/kg/injection, schedule: Q01DX009 (ip), vehicle: saline 100 % of control | [5] 106 % of control | [2] 94 % of control

O=C1C2Nc3ccccc3N=C2OC1c1ccccc1 (stereo unspecified)
inactive: [10] 96 % of control | [11] 96 % of control | [6] 100 % of control

CC(NC(=O)C(CO)NC(=O)c1cnc2ccccc2n1)C(=O)OC(C)(C)C (stereo unspecified)
inactive: dose: 60.0 mg/kg/injection, schedule: Q01DX005 (ip), vehicle: DMSO 98 % of control | dose: 120.0 mg/kg/injection, schedule: Q01DX005 (ip), vehicle: DMSO 99 % of control | dose: 240.0 mg/kg/injection, schedule: Q01DX005 (ip), vehicle: DMSO 109 % of control

ON1c2ccc3ccccc3c2C=CC1(c1ccccc1)c1ccccc1
inactive: [15] 103 % of control | [16] 103 % of control | [17] 97 % of control

CC1CN2COC(=S)SSSSC(=S)OCN3CC(C)N(COC(=S)SSSSC(=S)OCN1CC2C)CC3C (stereo unspecified)
inactive: [15] 99 % of control | [16] 103 % of control | [17] 106 % of control
